The values that follow come from US7425565B2, “Use of benzothiopenes to treat and prevent prostate cancer” (Cedars-Sinai Medical Center, priority 2002, dated 2008).

Structures are written as SMILES. Where a name gives a salt, the structure may show the parent alone.

The test system of assay [1] is human prostate tumor cells (CWR22R). Briefly: Inhibition of tumor growth in androgen-independent xenograft model (CWR22R). To be noted: 0.85 mg/kg daily s.c., after 30 days. It counts as in vivo, nude mice. The text has this:
The inventor used an androgen-independent xenograft model of human prostate tumor cells (CWR22R) to raise tumors in male and female nude mice. Tumors developed over a period of 2-3 weeks into palpable masses. 10 mice were randomly assigned to a treatment group and 10 mice were assigned to a control group. […] Mice in the control group received an injection of saline solution. After 30 days, tumors from surviving mice were surgically removed and visibly examined. Tumor size was reduced by 60% in mice from the treated group as compared to mice from the control group and female hosts.

In assay [2] the test system is androgen-independent prostate cancer. Description: Treatment of male patients with androgen-independent prostate cancer (Example 1). It counts as in vivo, human. As for the experimental part: Three male patients were selected for treatment on the basis of established diagnosis with prostate cancer. All three patients had failed standard androgen withdrawal therapy. Average prostate-specific antigen (“PSA”) levels for each patient at the beginning of treatment was about 20-30 ng/ml. Hormone ablative therapy, in some cases aggressively administered as long as 36 months, had failed, manifested by a continued rise in PSA levels in each patient. […] Each patient continued to receive luteinizing hormone-releasing hormone (“LHRH”)-agonist therapy, despite tumor growth in its presence. This is considered standard therapy, as tumor growth is likely to be more aggressive if testosterone levels were allowed to return to normal in these patients.

Assay [3] has the same test system. The conditions noted are these: several previous clinical trials; cited from earlier work.

Take `O=C(c1ccc(OCCN2CCCCC2)cc1)c1c(-c2ccc(O)cc2)sc2cc(O)ccc12` [raloxifene HCl, Raloxifene hydrochloride]: the “reduction of tumor size vs control group” value in assay [1] is on record as 60%. Besides, the “bone scan of the longest treated patient” value in assay [2] (17 months since beginning therapy) is given as “improvement in their bone scan”. Further, the “continued PSA of the longest treated patient” value in assay [2] (17 months since beginning therapy, 60 mg/day orally) is less than 0.4 ng/mL. In addition, in assay [2] (three patients, 60 mg orally once a day for a minimum of 30 days, continued LHRH-agonist therapy), the “decline of PSA levels” value is listed as greater than 50%.
Regarding `CC/C(=C(\c1ccccc1)c1ccc(OCCN(C)C)cc1)c1ccccc1` [tamoxifen], the “effect on androgen-independent prostate cancer” value in assay [3] was “no effect”.
